Read-outs that look alike come from different tables or passages of the source.
Legend:
Vero cells = test: Cytotoxicity against Vero cells (sulforhodamine B assay); assay type: cell-based, African green monkey; details: for EC50: Chlorocebus sabaeus, 72 h, read-out: EC50 ± S.E.M. Vero; for cytotoxicity against Vero cells (in words): at the concentration of 100 μM
Procedure: Cytotoxicity test of selected analogues was performed against the African green monkey kidney fibroblast (Vero cells) obtained from Bioassay laboratory, BIOTEC, NSTDA, Thailand. The cells of less than 20 passages were maintained continuously in a MEM/EBSS medium supplemented with 10% heated fetal bovine serum (GE Healthcare, PAA Laboratories GmbH, Pasching, Aurstria), 2.2 g/L sodium bicarbonate (Emsure, ACS, Reag. Ph Eur, Darmstadt, Germany), and 1% sodium pyruvate (Sigma). Cytotoxicity was determined by sulforhodamine B assay. Briefly, 1.9 × 10^4 Vero cells were incubated with each compound at final concentrations of 0.0001–100 µM at 37 °C under 5% CO2. After incubation for 72 h, the cells were fixed with 10% trichloroacetic acid (Sigma) at 4 °C for 45 min, washed gently with tap-water and air-dried at room temperature for overnight. Then, the fixed protein was stained with 0.057% w/v of sulforhodamine B (Sigma). The excess dye was washed repeatedly with 1% v/v of acetic acid. The plates were allowed to air-dry at room temperature for overnight. Finally, the protein-bound dye in each well was dissolved with 50 µL of 10× Tris-based solution. The optical density (OD) was measured by a microplate reader at wavelength 510 nm. The EC50 value of each compound was determined from the dose-response curve. Data were shown as mean and standard error of the mean (S.E.M.) of three biological independent experiments.

Vero E6 cell lines = test: Cytotoxicity against Vero E6 cells (CellTiter 96 AQueous One); assay type: cell-based; details: for EC50: Chlorocebus sabaeus, read-out: EC50 ± S.E.M. Vero E6
Procedure: The cytotoxicity of the active compound was tested with Vero E6 cell lines. Each cell line was seeded at 1 × 10^4 cells per well into 96-well plates in growth medium and incubated overnight. The compounds were prepared at the concentrations of 2–500 µM in DMSO and added to the cells at the DMSO final concentrations of 0.1%. Cells were incubated for 48 h before analyzing the cell viability using CellTiter 96® AQueous One Solution Cell Proliferation Assay kit (Promega, Madison, WI, USA) according to the manufacturer’s protocol. The plate was read at the A450 by VICTORTM X3 microplate reader (PerkinElmer, Waltham, MA, USA). The EC50 values of the cells were calculated from nonlinear regression analysis. The results were reported as means and standard error of mean (S.E.M.) from three biological independent experiments.

[1] = system: T. brucei rhodesiense (STB900); test: In vitro antitrypanosomal assay (resazurin); assay type: cell-based, Trypanosoma brucei rhodesiense; details: for IC50: Trypanosoma brucei, RHODESIENSE, read-out: IC50 ± S.E.M. Antitrypanosomal against T. brucei rhodesiense
Procedure: T. brucei rhodesiense (STB900) was maintained continuously in MEM/EBSS medium (pH 7.3) supplemented with 3 g/L sodium bicarbonate, 4.5 g/L glucose, 25 mM HEPES, 0.05 mM bathocuproinedisulfonic disodium salt, 1.5 mM L-cysteine, 1 mM hypoxanthine, 0.16 mM thymidine, 1 mM sodium pyruvate, 0.2 mM 2-mercaptoethanol, 1% MEM non-essential amino acid, and 15% v/v heated ([…]) FBS in a 5% CO2 incubator [47]. To evaluate the antitrypanosomal activity, trypanosome cells were seeded at 2 × 10^4 cells/well in 175 µL culture media/well and incubated with 25 µL of varying concentrations of each test compound in a 96-well plate under the culture conditions. […] Following 72 h incubation, 20 μL of resazurin was added to each well. The reaction was further incubated at 37 °C under 5% CO2 for 3 h to allow for the irreversible reduction of resazurin (violet color) to resorufin (pink color) by viable trypanosome cells. Fluorescence signals were measured by a spectrofluorometer using a 530-nm excitation wavelength and a 585-nm emission wavelength. […] The result for each compound was normalized using the control media for the overall background subtraction (0%), and untreated T. brucei rhodesiense with 0.1% DMSO was used as the 100% control.

3D7 P. falciparum = test: In vitro antimalarial assay (SYBR Green I); assay type: cell-based; details: Plasmodium falciparum, read-out: IC50 ± S.E.M. Antimalarial against 3D7 P. falciparum
[2] = cytotoxicity, Vero cells, sulforhodamine B, 0.0001–100 µM
[3] = Vero C1008, cytotoxicity, Vero E6 cells, 48 h, 2–500 µM

SMILES | EC50 (Vero cells; [2]) | EC50 (Vero E6 cell lines; [3]) | IC50 ([1]; 72 h incubation, resazurin) | IC50 (3D7 P. falciparum; 3D7 strain, 48 h, SYBR Green I) | cytotoxicity against Vero cells (in words) (Vero cells) | EC50 (Vero cells; Vero) | EC50 (Vero E6 cell lines; Vero C1008, 48 h) | cytotoxicity against Vero E6 cell lines (in words) (Vero E6 cell lines; at the concentration of 500 μM) | IC50 ([1]; 72 h) | activity against T. brucei rhodesiense (in words) ([1]; at 100 μM) | IC50 (3D7 P. falciparum; 3D7, 48 h)
O=C(/C=C/C=C/c1ccc2c(c1)OCO2)Nc1ccccc1 [Compound 3, (2E,4E)-5-(benzo[d][1,3]dioxol-5-yl)-N-phenylpenta-2,4-dienamide] | > 100 µM | > 500 µM | 53.5 ± 1.77 µM | 25.8 ± 1.56 µM | – | – | – | – | – | – | –
N=C(N)c1ccc(OCCCCCOc2ccc(C(=N)N)cc2)cc1 [Pentamidine, reference compound] | – | – | 0.016 ± 0.002 µM | – | – | – | – | – | – | – | –
O=C(/C=C/C=C/c1ccc2c(c1)OCO2)N1CCCCC1 [Piperine (1), Piperine] | > 100 µM | 132 ± 2.91 µM | 56.7 ± 0.98 µM | 61.2 ± 2.83 µM | non-toxic | – | – | – | – | – | –
O=C(O)/C=C/C=C/c1ccc2c(c1)OCO2 [Piperic acid (2), Piperic acid] | – | – | – | – | non-toxic | > 100 µM | > 500 µM | non-toxic | > 100 µM | inactive | 63.5 ± 2.43 µM
COc1ccc(NC(=O)/C=C/C=C/c2ccc3c(c2)OCO3)c(OC)c1 [Compound 4, (2E,4E)-5-(benzo[d][1,3]dioxol-5-yl)-N-(2,4-dimethoxyphenyl)penta-2,4-dienamide] | > 100 µM | > 500 µM | 19.9 ± 2.28 µM | 29.4 ± 3.54 µM | – | – | – | – | – | – | –
COc1ccc(OC)c(NC(=O)/C=C/C=C/c2ccc3c(c2)OCO3)c1 [Compound 5, (2E,4E)-5-(benzo[d][1,3]dioxol-5-yl)-N-(2,5-dimethoxyphenyl)penta-2,4-dienamide] | > 100 µM | > 500 µM | 15.5 ± 3.09 µM | 24.6 ± 1.91 µM | no cytotoxicity | – | – | – | – | – | –
